Test results as given in paper PMC4774911, “Biochemical Screening of Five Protein Kinases from Plasmodium falciparum against 14,000 Cell-Active Compounds” (PLoS ONE, 2016).
Where two headings read alike, the source gives them in different places.

Legend:
P. falciparum 3D7 cells = conditions: P. falciparum 3D7, cited from earlier work
[1] = target: T1, Plasmodium falciparum calcium-dependent protein kinase 4 (CDPK4) (Plasmodium falciparum, UniProt Q8IBS5); assay: CDPK4 Kinase-Glo ATP-consumption screen and dose-response; assay type: biochemical; conditions: hits below 1 uM
T1 construct: 6-Histidine (N); made in house
T1 sequence (Q8IBS5 1-528): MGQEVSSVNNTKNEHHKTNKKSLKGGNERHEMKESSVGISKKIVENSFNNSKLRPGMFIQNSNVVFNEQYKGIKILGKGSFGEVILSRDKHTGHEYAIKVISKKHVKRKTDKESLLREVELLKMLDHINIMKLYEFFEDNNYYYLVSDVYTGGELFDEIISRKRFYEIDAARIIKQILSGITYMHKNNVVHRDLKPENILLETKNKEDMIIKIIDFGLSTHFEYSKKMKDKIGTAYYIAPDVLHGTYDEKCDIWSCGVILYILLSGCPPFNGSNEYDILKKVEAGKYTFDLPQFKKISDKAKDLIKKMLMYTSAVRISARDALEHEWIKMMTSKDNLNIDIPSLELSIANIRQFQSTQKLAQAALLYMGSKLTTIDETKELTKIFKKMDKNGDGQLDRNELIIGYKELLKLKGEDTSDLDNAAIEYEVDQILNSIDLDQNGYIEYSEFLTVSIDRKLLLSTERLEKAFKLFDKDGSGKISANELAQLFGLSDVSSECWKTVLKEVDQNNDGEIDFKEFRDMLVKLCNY
Outline: (§1)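 Single-point testing used 1 μM final compound, then dose-response, against CDPK4 and CDPK1 with Syntide-2 (40 μM) as substrate. After 90 min, reactions were halted by 5 mM EGTA, and kinase activity was inferred from depleted ATP via Kinase-Glo luminescence.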

P. falciparum DD2 = tested on: P. falciparum DD2; set-up: method as in ChEMBL; conditions: ref ChEMBL; cited from earlier work
PKG [2] = target: T2, PKG (Plasmodium falciparum, UniProt Q8I719); assay: PKG IC50 (supplementary data file); assay type: biochemical
T2 sequence (Q8I719 whole entry): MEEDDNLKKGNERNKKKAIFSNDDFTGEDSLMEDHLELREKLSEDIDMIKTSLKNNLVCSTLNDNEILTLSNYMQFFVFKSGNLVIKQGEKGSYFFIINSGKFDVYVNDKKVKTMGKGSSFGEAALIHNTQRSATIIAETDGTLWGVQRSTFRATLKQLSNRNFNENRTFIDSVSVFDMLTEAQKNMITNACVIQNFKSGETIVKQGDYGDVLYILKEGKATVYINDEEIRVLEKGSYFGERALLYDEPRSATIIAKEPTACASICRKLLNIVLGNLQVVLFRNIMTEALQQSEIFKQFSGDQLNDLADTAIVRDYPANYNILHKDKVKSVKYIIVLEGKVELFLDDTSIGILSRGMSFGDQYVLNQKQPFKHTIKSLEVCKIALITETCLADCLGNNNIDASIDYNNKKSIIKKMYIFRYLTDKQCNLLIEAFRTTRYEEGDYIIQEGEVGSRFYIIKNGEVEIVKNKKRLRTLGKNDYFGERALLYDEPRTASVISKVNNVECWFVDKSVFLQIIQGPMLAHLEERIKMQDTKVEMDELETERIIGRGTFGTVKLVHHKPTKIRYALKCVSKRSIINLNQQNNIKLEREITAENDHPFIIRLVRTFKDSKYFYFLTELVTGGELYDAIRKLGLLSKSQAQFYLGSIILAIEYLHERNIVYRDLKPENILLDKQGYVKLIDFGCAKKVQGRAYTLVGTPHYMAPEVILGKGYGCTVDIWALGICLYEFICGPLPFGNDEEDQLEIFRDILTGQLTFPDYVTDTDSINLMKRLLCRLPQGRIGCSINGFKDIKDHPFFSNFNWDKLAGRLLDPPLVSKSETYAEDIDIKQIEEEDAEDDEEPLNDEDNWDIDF
Description: (§2) Supplement pone.0149996.s003.xls, sheet "combined_1_sorted"

3D7 PFLDH [3] = tested on: 3D7 PFLDH; set-up: method as in ChEMBL; conditions: ref ChEMBL; cited from earlier work
HepG2 cells = conditions: HepG2 cells, cited from earlier work
[4] = target: T3, Plasmodium falciparum protein kinase 6 (PK6) (Plasmodium falciparum, UniProt Q8IDW1); assay: biochemical
T3 construct: 6-Histidine (N); made in house
T3 sequence (Q8IDW1 1-305): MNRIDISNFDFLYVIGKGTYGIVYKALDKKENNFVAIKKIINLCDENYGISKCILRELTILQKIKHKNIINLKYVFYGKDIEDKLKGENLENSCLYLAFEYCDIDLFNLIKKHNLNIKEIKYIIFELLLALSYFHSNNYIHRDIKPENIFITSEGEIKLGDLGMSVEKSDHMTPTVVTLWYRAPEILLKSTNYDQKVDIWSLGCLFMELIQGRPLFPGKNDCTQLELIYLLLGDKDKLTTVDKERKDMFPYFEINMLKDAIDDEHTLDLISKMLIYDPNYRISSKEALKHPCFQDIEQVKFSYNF

[5] = target: T4, Plasmodium falciparum calcium-dependent protein kinase 1 (CDPK1) (Plasmodium falciparum, UniProt P62344); assay: CDPK1 Kinase-Glo ATP-consumption screen and dose-response; assay type: biochemical
T4 construct: 6-Histidine (N); made in house
T4 sequence (P62344 whole entry): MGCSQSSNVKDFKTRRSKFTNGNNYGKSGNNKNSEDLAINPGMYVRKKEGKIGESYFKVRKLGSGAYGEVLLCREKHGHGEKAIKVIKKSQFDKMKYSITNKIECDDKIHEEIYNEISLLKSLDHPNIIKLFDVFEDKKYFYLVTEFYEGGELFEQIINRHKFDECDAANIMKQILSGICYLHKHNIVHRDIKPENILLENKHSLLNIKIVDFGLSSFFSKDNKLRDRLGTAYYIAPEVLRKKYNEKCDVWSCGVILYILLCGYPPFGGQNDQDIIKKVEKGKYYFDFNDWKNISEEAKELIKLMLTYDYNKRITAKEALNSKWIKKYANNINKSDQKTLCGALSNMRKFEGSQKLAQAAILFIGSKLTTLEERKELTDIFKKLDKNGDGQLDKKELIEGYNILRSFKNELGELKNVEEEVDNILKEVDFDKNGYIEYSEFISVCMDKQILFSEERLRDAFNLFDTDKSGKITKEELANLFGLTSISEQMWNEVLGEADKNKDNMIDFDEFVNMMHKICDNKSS
Outline: as §1

3D7 PFLDH [6] = tested on: 3D7 PFLDH; set-up: method as in F.J. Gamo et al., Nature 2010; conditions: downloaded from ChEMBL ref F.J. Gamo et al., Nature 2010; cited from earlier work
PKG [7] = target: T2, PKG; assay: PKG IC50 (supplementary data file of hits); assay type: biochemical
Description: as §2

DD2 = tested on: DD2; set-up: method as in F.J. Gamo et al., Nature 2010; conditions: P. falciparum Dd2; downloaded from ChEMBL ref F.J. Gamo et al., Nature 2010; cited from earlier work
[8] = hits below 1 uM, read-out: PK6 IC50
[9] = hits below 1 uM, read-out: CDPK1 IC50
[10] = downloaded from ChEMBL ref F.J. Gamo et al., Nature 2010

| Compound | PCT_IHB_3D7 (P. falciparum 3D7 cells; ref ChEMBL) | pXC50_3D7 (P. falciparum 3D7 cells; ref ChEMBL) | IC50 [1] [µM] | PCT_INHB_DD2 (P. falciparum DD2) | IC50 (PKG [2]) [µM] | PCT_INHIB_3D7_PFLDH (3D7 PFLDH [3]) | PCT_INHIB_HEPG2 (HepG2 cells; ref ChEMBL) | IC50 [4, 8] [µM] | IC50 [5, 9] [µM] | PCT_IHB_3D7 (P. falciparum 3D7 cells; [10]) | pXC50_3D7 (P. falciparum 3D7 cells; [10]) | PCT_INHIB_3D7_PFLDH (3D7 PFLDH [6]) | IC50 (PKG [7]) [µM] | PCT_INHIB_HEPG2 (HepG2 cells; [10]) | PCT_INHB_DD2 (DD2) | IC50 [4] [µM] | IC50 [5] [µM] |
| --- | --- | --- | --- | --- | --- | --- | --- | --- | --- | --- | --- | --- | --- | --- | --- | --- | --- |
| N#Cc1ccc(C(=O)Nc2cc(-c3cccc(O)c3)cc3[nH]ncc23)cc1 [TCMDC-134118] | 90 | 5.863 | 0.478 | 79 | > 10 | 0 | 15 | – | – | – | – | – | – | – | – | – | – |
| COc1ccc(Nc2ncc3c(-c4cccc(NC(=O)Cc5ccc(O)cc5)c4)c[nH]c3n2)cc1OC [TCMDC-135248] | 100 | 6.244 | – | 99 | – | 0 | 48 | 0.445 | 0.098 | – | – | – | – | – | – | – | – |
| O=C(Nc1ccccc1)Nc1cccc(-c2nn3c(OCCN4CCCC4)cccc3c2-c2ccncc2)c1 [TCMDC-135539] | – | – | 0.775 | – | – | – | – | – | – | 100 | 6.394 | 4 | > 10 | 30 | 98 | – | – |
| CCN(CC)CCNC(=O)c1ccc(N/C=C2\C(=O)Nc3ccc(S(=O)(=O)Cc4c(Cl)cccc4Cl)cc32)cc1 [TCMDC-135945] | 100 | 6.0758 | 0.073 | 56 | > 10 | 3 | 25 | – | – | – | – | – | – | – | – | – | – |
| NS(=O)(=O)c1cccc(N/C=C2\C(=O)Nc3ccc(S(=O)(=O)Cc4c(Cl)cccc4Cl)cc32)c1 [TCMDC-135947] | 92 | 6.143 | 0.116 | 99 | > 10 | 4 | 1 | – | – | – | – | – | – | – | – | – | – |
| Cc1csc(-c2ncc(OC[C@@H](N)Cc3ccccc3)cc2-c2ccc3[nH]nc(C)c3c2)c1.O=C(O)C(F)(F)F [TCMDC-136087] | 98 | 6.078 | 0.42 | 35 | > 10 | 4 | 48 | – | 0.044 | – | – | – | – | – | – | – | – |
| Cc1n[nH]c2ccc(-c3cc(OC[C@@H](N)Cc4ccccc4)cnc3-c3cc4ccccc4s3)cc12.O=C(O)C(F)(F)F [TCMDC-136352] | 99 | 6.092 | 0.563 | 68 | > 10 | 0 | 41 | – | – | – | – | – | – | – | – | – | – |
| Cc1ccc(Nc2ccnc(Nc3ccc4c(c3)CS(=O)(=O)C4)n2)cc1O.Cl [TCMDC-138484] | 100 | 6.14 | – | 76 | – | 5 | 82 | 0.122 | 0.416 | – | – | – | – | – | – | – | – |
| CCN(CC)CCNC(=O)c1ccc(Nc2ncc([N+](=O)[O-])c(Nc3ccccc3OC)n2)cc1.Cl [TCMDC-138727] | 97 | 6.841 | – | 58 | – | 0 | 59 | 0.11 | – | – | – | – | – | – | – | – | – |
| COc1cccc(-n2ncc3c(N/N=C/c4ccc(CN(C)CCN(C)C)cc4)ncnc32)c1 [TCMDC-138728] | 100 | 6.049 | – | 91 | – | 0 | 29 | 0.058 | – | – | – | – | – | – | – | – | – |
| CN(c1ccc2c(c1)nc(NCc1ccccc1)n2C)c1ccnc(Nc2ccc(CS(C)(=O)=O)cc2)n1.Cl [TCMDC-138740] | 94 | 6.075 | – | 69 | – | 4 | 61 | 0.464 | – | – | – | – | – | – | – | – | – |
| O=CO.O=S1(=O)NCc2ccc(Nc3nccc(Nc4ccc5c(cnn5Cc5ccccc5)c4)n3)cc21 [TCMDC-138840] | 94 | 6.125 | – | 33 | – | 0 | 0 | 0.265 | 0.11 | – | – | – | – | – | – | – | – |
| CC(C)(CN)c1nc(-c2ccc(Br)c(O)c2)c(-c2ccncc2)[nH]1.Cl [TCMDC-140680] | – | – | – | – | – | – | – | – | 0.019 | 96 | 6.015 | 0 | 0.242 | 31 | 97 | – | – |
| CCN(CC)CCOc1ccc(Nc2ncc3cc(-c4c(Cl)cccc4Cl)c(=O)n(C)c3n2)cc1 [TCMDC-140940] | 90 | 5.929 | – | 91 | – | 1 | 72 | – | – | – | – | – | – | – | – | 0.35 | 0.78 |
| Cn1cnc2c(Nc3ccncc3)nc(-c3ccc4c(c3)OCO4)nc21.O=C(O)C(F)(F)F [TCMDC-141274] | 96 | 5.953 | – | 2 | – | 0 | 19 | 0.5 | – | – | – | – | – | – | – | – | – |
| Cl.Nc1ncnc2occ(-c3ccc(NC(=O)Nc4cc(C(F)(F)F)ccc4F)cc3)c12 [TCMDC-141371] | 99 | 5.765 | – | 99 | – | 0 | 57 | 0.335 | 0.165 | – | – | – | – | – | – | – | – |
| Cn1nc(-c2ccc(NC(=O)Nc3ccc4ccccc4c3)c(F)c2)c2cnc(NCCN3CCOCC3)nc21.O=C(O)C(F)(F)F [TCMDC-141561] | 93 | 5.992 | – | 3 | – | 1 | 62 | 0.86 | – | – | – | – | – | – | – | – | – |
| Cc1ccc(Nc2nc3cc(Nc4ccnc(Nc5cccc(CS(C)(=O)=O)c5)n4)ccc3o2)cc1.O=C(O)C(F)(F)F [TCMDC-141957] | 100 | 6.0348 | – | 81 | – | 4 | 55 | 0.229 | – | – | – | – | – | – | – | – | – |
